Assay results reported in PMC9848300, “Discovery of novel enasidenib analogues targeting inhibition of mutant isocitrate dehydrogenase 2 as antileukaemic agents” (Journal of Enzyme Inhibition and Medicinal Chemistry, 2023).

Legend:
IGROV1 = experiment: NCI 60 antitumor screening (single dose / five doses); assay type: cell-based; conditions: Homo sapiens, IGROV-1; for inhibition at 10 µM: IGROV1 (ovarian cancer), single dose 10 μM, read-out: Growth inhibition percentage (GI %)
A498 = experiment: as above; assay type: cell-based; conditions: Homo sapiens; for inhibition at 10 µM: A498 (renal cancer), single dose 10 μM, read-out: Growth inhibition percentage (GI %)
SR = experiment: as above; assay type: cell-based; conditions: Homo sapiens; for inhibition at 10 µM: SR (leukaemia), single dose 10 μM, read-out: Growth inhibition percentage (GI %)
HT29 = experiment: as above; assay type: cell-based, human; conditions: Homo sapiens; for inhibition at 10 µM: HT-29, HT29 (colon cancer), single dose 10 μM, read-out: Growth inhibition percentage (GI %)
SK-MEL-5 = experiment: as above; assay type: cell-based; conditions: Homo sapiens; for inhibition at 10 µM: SK-MEL-5 (melanoma), single dose 10 μM, read-out: Growth inhibition percentage (GI %)
EKVX = experiment: as above; assay type: cell-based; conditions: Homo sapiens; for inhibition at 10 µM: EKVX (non-small cell lung cancer), single dose 10 μM, read-out: Growth inhibition percentage (GI %)
HOP-92 = experiment: as above; assay type: cell-based; conditions: Homo sapiens; for inhibition at 10 µM: HOP-92 (non-small cell lung cancer), single dose 10 μM, read-out: Growth inhibition percentage (GI %)
MDA-MB-468 = experiment: as above; assay type: cell-based; conditions: Homo sapiens; for inhibition at 10 µM: MDA-MB-468 (breast cancer), single dose 10 μM, read-out: Growth inhibition percentage (GI %)
UACC-62 = experiment: as above; assay type: cell-based; conditions: Homo sapiens; for inhibition at 10 µM: UACC-62 (melanoma), single dose 10 μM, read-out: Growth inhibition percentage (GI %)
MALME-3M = experiment: as above; assay type: cell-based; conditions: Homo sapiens; for inhibition at 10 µM: MALME-3M (melanoma), single dose 10 μM, read-out: Growth inhibition percentage (GI %)
COLO 205 = experiment: as above; assay type: cell-based; conditions: Homo sapiens; for inhibition at 10 µM: COLO 205 (colon cancer), single dose 10 μM, read-out: Growth inhibition percentage (GI %)
SK-MEL-28 = experiment: as above; assay type: cell-based; conditions: Homo sapiens; for inhibition at 10 µM: SK-MEL-28 (melanoma), single dose 10 μM, read-out: Growth inhibition percentage (GI %)
CCRF-CEM = experiment: as above; assay type: cell-based; conditions: Homo sapiens; for inhibition at 10 µM: CCRF-CEM (leukaemia), single dose 10 μM, read-out: Growth inhibition percentage (GI %)
SW-620 = experiment: as above; assay type: cell-based, human; conditions: Homo sapiens; for inhibition at 10 µM: SW-620 (colon cancer), single dose 10 μM, read-out: Growth inhibition percentage (GI %)
ACHN = experiment: as above; assay type: cell-based; conditions: Homo sapiens; for inhibition at 10 µM: ACHN (renal cancer), single dose 10 μM, read-out: Growth inhibition percentage (GI %)
DU-145 = experiment: as above; assay type: cell-based; conditions: Homo sapiens; for inhibition at 10 µM: DU-145 (prostate cancer), single dose 10 μM, read-out: Growth inhibition percentage (GI %)
UACC-257 = experiment: as above; assay type: cell-based; conditions: Homo sapiens; for inhibition at 10 µM: UACC-257 (melanoma), single dose 10 μM, read-out: Growth inhibition percentage (GI %)
RXF 393 = experiment: as above; assay type: cell-based; conditions: Homo sapiens; for inhibition at 10 µM: RXF 393 (renal cancer), single dose 10 μM, read-out: Growth inhibition percentage (GI %)
SNB-75 = experiment: as above; assay type: cell-based; conditions: Homo sapiens; for inhibition at 10 µM: SNB-75 (CNS cancer), single dose 10 μM, read-out: Growth inhibition percentage (GI %)
MDA-MB-435 = experiment: as above; assay type: cell-based; conditions: Homo sapiens; for inhibition at 10 µM: MDA-MB-435 (melanoma), single dose 10 μM, read-out: Growth inhibition percentage (GI %)
NCI-H460 = experiment: NCI 60 antitumor screening (single dose); assay type: cell-based; conditions: Homo sapiens; NCI-H460 (non-small cell lung cancer), single dose 10 μM; read-out: Growth inhibition percentage (GI %)
In short: (§1)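 Values are GI% (100 minus percent growth, G%) from the NCI 60 cell line screen at one 10 μM concentration. Tests were done in triplicate under NCI protocol, with a mean across the whole panel reported as well.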

HS 578T = experiment: NCI 60 antitumor screening (single dose); assay type: cell-based; conditions: Homo sapiens; HS 578T (breast cancer), single dose 10 μM; read-out: Growth inhibition percentage (GI %)
In short: (§2)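 Under the NCI Drug Evaluation Branch protocol, each compound is screened at one 10 μM concentration on the 60-line human tumour panel. Growth of treated cells is expressed as G%, and inhibition is reported as 100 − G%.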

PC-3 = experiment: NCI 60 antitumor screening (single dose); assay type: cell-based; conditions: Homo sapiens; PC-3 (prostate cancer), single dose 10 μM; read-out: Growth inhibition percentage (GI %)
In short: as §2

SK-OV-3 = experiment: NCI 60 antitumor screening (single dose); assay type: cell-based; conditions: Homo sapiens; SK-OV-3 (ovarian cancer), single dose 10 μM; read-out: Growth inhibition percentage (GI %)
In short: as §1

SF-539 = experiment: NCI 60 antitumor screening (single dose / five doses); assay type: cell-based; conditions: Homo sapiens; for inhibition at 10 µM: SF-539 (CNS cancer), single dose 10 μM, read-out: Growth inhibition percentage (GI %)
SN 12C = experiment: as above; assay type: cell-based; conditions: Homo sapiens, SN12C; for inhibition at 10 µM: SN 12C (renal cancer), single dose 10 μM, read-out: Growth inhibition percentage (GI %)
NCI/ADR-RES = experiment: as above; assay type: cell-based; conditions: Homo sapiens; for inhibition at 10 µM: NCI/ADR-RES (ovarian cancer), single dose 10 μM, read-out: Growth inhibition percentage (GI %)
MDA-MB-231/ATCC = experiment: as above; assay type: cell-based; conditions: Homo sapiens; for inhibition at 10 µM: MDA-MB-231/ATCC (breast cancer), single dose 10 μM, read-out: Growth inhibition percentage (GI %)

SMILES: Clc1cccc(/C=N/Nc2nc(N/N=C/c3cccc(Cl)c3)nc(N3CCOCC3)n2)c1 [compound 6d, 2,4-Bis[(E)-2-[(3-chlorophenyl)methylidene]hydrazin-1-yl]-6-(morpholin-4-yl)-1,3,5-triazine]
- inhibition at 10 µM (IGROV1): 49.4%
- GI50 (IGROV1; IGROV1, five doses (0.01–100 μM), read-out: GI50): 4610 nM
- inhibition at 10 µM (A498): 95.7%
- GI50 (A498; A498, five doses (0.01–100 μM), read-out: GI50): 1670 nM
- inhibition at 10 µM (SR): 92.3%
- GI50 (SR; SR, five doses (0.01–100 μM), read-out: GI50): 320 nM
- GI50 (HT29; HT-29, HT29, five doses (0.01–100 μM), read-out: GI50): 1340 nM
- inhibition at 10 µM (HT29): 91.8%
- inhibition at 10 µM (SK-MEL-5): 55.9%
- GI50 (SK-MEL-5; SK-MEL-5, five doses (0.01–100 μM), read-out: GI50): 1720 nM
- inhibition at 10 µM (EKVX): 27.8%
- GI50 (EKVX; EKVX, five doses (0.01–100 μM), read-out: GI50): 4230 nM
- inhibition at 10 µM (HOP-92): 34.5%
- GI50 (HOP-92; HOP-92, five doses (0.01–100 μM), read-out: GI50): 2170 nM
- inhibition at 10 µM (MDA-MB-468): 69.2%
- GI50 (MDA-MB-468; MDA-MB-468, five doses (0.01–100 μM), read-out: GI50): 1650 nM
- inhibition at 10 µM (UACC-62): 8.33%
- GI50 (UACC-62; UACC-62, five doses (0.01–100 μM), read-out: GI50): 4540 nM
- inhibition at 10 µM (MALME-3M): 144%
- GI50 (MALME-3M; MALME-3M, five doses (0.01–100 μM), read-out: GI50): 2860 nM
- inhibition at 10 µM (COLO 205): 63.1%
- GI50 (COLO 205; COLO 205, five doses (0.01–100 μM), read-out: GI50): 1230 nM
- inhibition at 10 µM (SK-MEL-28): 70.2%
- GI50 (SK-MEL-28; SK-MEL-28, five doses (0.01–100 μM), read-out: GI50): 2860 nM
- inhibition at 10 µM (CCRF-CEM): 75.2%
- GI50 (CCRF-CEM; CCRF-CEM, five doses (0.01–100 μM), read-out: GI50): 1340 nM
- GI50 (SW-620; SW-620, SW-620, five doses (0.01–100 μM), read-out: GI50): 1780 nM
- inhibition at 10 µM (SW-620): 81.9%
- inhibition at 10 µM (ACHN): 74.2%
- GI50 (ACHN; ACHN, five doses (0.01–100 μM), read-out: GI50): 2110 nM
- inhibition at 10 µM (DU-145): 57.5%
- GI50 (DU-145; DU-145, five doses (0.01–100 μM), read-out: GI50): 2620 nM
- inhibition at 10 µM (UACC-257): 60.9%
- GI50 (UACC-257; UACC-257, five doses (0.01–100 μM), read-out: GI50): 2470 nM
- inhibition at 10 µM (RXF 393): 82.5%
- GI50 (RXF 393; RXF 393, five doses (0.01–100 μM), read-out: GI50): 1000 nM
- inhibition at 10 µM (SNB-75): -2.64%
- GI50 (SNB-75; SNB-75, five doses (0.01–100 μM), read-out: GI50): 3330 nM
- inhibition at 10 µM (MDA-MB-435): 50.7%
- GI50 (MDA-MB-435; MDA-MB-435, five doses (0.01–100 μM), read-out: GI50): 4240 nM
- inhibition at 10 µM (NCI-H460): 21.8%
- inhibition at 10 µM (HS 578T): 32.5%
- inhibition at 10 µM (PC-3): 58.5%
- inhibition at 10 µM (SK-OV-3): -29.6%
- inhibition at 10 µM (SF-539): 56.4%
- GI50 (SF-539; SF-539, five doses (0.01–100 μM), read-out: GI50): 5390 nM
- inhibition at 10 µM (SN 12C): 40.1%
- GI50 (SN 12C; SN 12C, five doses (0.01–100 μM), read-out: GI50): 4990 nM
- inhibition at 10 µM (NCI/ADR-RES): 38.2%
- GI50 (NCI/ADR-RES; NCI/ADR-RES, five doses (0.01–100 μM), read-out: GI50): 4580 nM
- GI50 (MDA-MB-231/ATCC; MDA-MB-231/ ATCC, five doses (0.01–100 μM), read-out: GI50): 9160 nM
- inhibition at 10 µM (MDA-MB-231/ATCC): 28.7%

SMILES: Fc1cccc(/C=N/Nc2nc(N/N=C/c3cccc(F)c3)nc(N3CCOCC3)n2)c1 [compound 6e, 2,4-Bis[(E)-2-[(3-Fluorophenyl)methylidene]hydrazin-1-yl]-6-(morpholin-4-yl)-1,3,5-triazine]
- inhibition at 10 µM (IGROV1): 18.4%
- inhibition at 10 µM (A498): 52%
- inhibition at 10 µM (SR): 60.2%
- inhibition at 10 µM (HT29): 53.5%
- inhibition at 10 µM (SK-MEL-5): 27.9%
- inhibition at 10 µM (EKVX): 10.9%
- inhibition at 10 µM (HOP-92): 8.68%
- inhibition at 10 µM (MDA-MB-468): 11.5%
- inhibition at 10 µM (UACC-62): -5.24%
- inhibition at 10 µM (MALME-3M): -44%
- inhibition at 10 µM (COLO 205): 37.4%
- inhibition at 10 µM (SK-MEL-28): 10.1%
- inhibition at 10 µM (CCRF-CEM): 32.8%
- inhibition at 10 µM (SW-620): 34%
- inhibition at 10 µM (ACHN): 20.9%
- inhibition at 10 µM (DU-145): 40.5%
- inhibition at 10 µM (UACC-257): 6.59%
- inhibition at 10 µM (RXF 393): 79.3%
- inhibition at 10 µM (SNB-75): 18.3%
- inhibition at 10 µM (MDA-MB-435): 1.89%
- inhibition at 10 µM (NCI-H460): 5.44%
- inhibition at 10 µM (HS 578T): -0.4%
- inhibition at 10 µM (PC-3): 24.5%
- inhibition at 10 µM (SK-OV-3): -17.7%
- inhibition at 10 µM (SF-539): 12.6%
- inhibition at 10 µM (SN 12C): 8.98%
- inhibition at 10 µM (NCI/ADR-RES): 8.29%
- inhibition at 10 µM (MDA-MB-231/ATCC): 3.49%
